Publication PMC6693780, “Triazoloquinazolines as a new class of potent α-glucosidase inhibitors: in vitro evaluation and docking study” (PLoS ONE, 2019)
Several values for one entry are separate records, joined by “and”; a condition that tells them apart may be missing. Equal values may be shown once.

Target: α-glucosidase enzyme from Saccharomyces cerevisiae type 1
Assay: α-Glucosidase inhibitory assay (p-NPG substrate, absorbance at 405 nm)
Type: biochemical
Conditions: for IC50: S. cerevisiae α-glucosidase type 1, p-NPG 2 mM, pH 6.5, 37°C, 30 min, triplicate; for times more potent than acarbose: ratio of IC50 values versus acarbose; for inhibition of α-glucosidase (not screened for IC50): screening, concentration not given
Description: For phosphate-buffered saline (PBS), NaH₂PO₄ (1.4 g), NaCl (8 g), KCl (0.2 g), and KH₂PO4 (0.2 g) were dissolved in deionized H2O (1 L) at 20°C. Using NaOH (1M) and HCl (1M), the pH of the solution was adjusted to 6.5 at 20°C. p-Nitrophenyl-α-D-glucopyranoside (2 mM) (p-NPG-substrate) was prepared by dissolving p-NPG (6 mg) in buffer solution (10 mL). α-Glucosidase enzyme Type 1, lyophilized powder (Sigma-Aldrich) from Saccharomyces cerevisiae (a mixture of MAL12 and MAL32) was employed. The enzyme solution was prepared by dissolving 1 mg of in 1000 μL of cold PBS (pH 6.5). Subsequently, 50 μL of α-glucosidase enzyme solution was mixed with cold buffered saline (12 mL) to a concentration of 0.125 unit/mL. For sample screening, a solution of 200 μg/mL concentration was prepared in 100% DMSO, and then subjected to two-fold serial dilution in 5% DMSO in a 96-well microplate to obtain concentrations of 100, 50, 25, 12.5, 6.25, 3.13, and 1.56 μg/mL. The samples were screened using Epoch 2 Microplate Spectrophotometer from BioTek. To each well of the 96-well microplate, 10 μL of DMSO (5%) was added. The stock solution (10 μL) was added to the first well and mixed. Then, 10 μL of sample was withdrawn from the first well and added to the second well, and the process was repeated for two-fold serial dilution. Subsequently, 20 μL of α-glucosidase enzyme, 40 μL of PBS (pH 6.5), and 20 μL of deionized H2O were added to each well of the 96-well microtiter plate with constant stirring. The plate was pre-incubated at 37°C for 10 min, and then 10 μL of p-NPG (2 mM) solution was added to the mixture; its absorbance at 0 min was measured at a wavelength of 405 nm. The reaction mixture was incubated at 37°C for 30 min, and subsequently, its absorbance was measured. […] The experiment was performed in triplicate. According to a previously described methodology, the α-glucosidase inhibitory activity was determined and the inhibition (%) of this activity was calculated using the following equation: %inhibition=(A30min−A0min)control−(A30min−A0min)exp/(A30min−A0min)control×100

SMILES: CSc1nc2[nH]c(=O)c3ccccc3n2n1 [Compound 1]
- IC50: 155.9 ± 1.36 µM

SMILES: CS(=O)(=O)c1nc2[nH]c(=O)c3ccccc3n2n1 [Compound 2]
- IC50: 180 µM

SMILES: O=c1[nH]c2nc(Oc3ccccc3)nn2c2ccccc12 [Compound 3]
- IC50: 83.9 ± 5.12 µM

SMILES: CCn1c(=O)c2ccccc2n2nc(SC)nc12 [Compound 4]
- IC50: 45.6 ± 4.28 µM
- times more potent than acarbose: ~3

SMILES: C=CCn1c(=O)c2ccccc2n2nc(SC)nc12 [Compound 5]
- IC50: 45.6 µM and 72.3 µM

SMILES: CSc1nc2n(Cc3ccc([N+](=O)[O-])cc3)c(=O)c3ccc(C)cc3n2n1 [Compound 6]
- % inhibition of α-glucosidase (at 0.28 μM): 16.24% inhibition at 0.28 μM
- inhibition of α-glucosidase (not screened for IC50): less than 50%

SMILES: CCn1c(=O)c2ccccc2n2nc(S(C)(=O)=O)nc12 [Compound 7]
- % inhibition of α-glucosidase (at 0.34 μM): 19.15% inhibition at 0.34 μM
- inhibition of α-glucosidase (not screened for IC50): less than 50%

SMILES: C=CCn1c(=O)c2ccccc2n2nc(S(C)(=O)=O)nc12 [Compound 8]
- IC50: 28.5 ± 1.22 µM
- times more potent than acarbose: ~5

SMILES: O=c1c2ccccc2n2nc(Oc3ccccc3)nc2n1Cc1ccc([N+](=O)[O-])cc1 [Compound 9]
- % inhibition of α-glucosidase (at 0.24 μM): 16.89% inhibition at 0.24 μM

SMILES: Cc1ccc2c(=O)n(Cc3ccc(C#N)cc3)c3nc(Oc4ccccc4)nn3c2c1 [Compound 10]
- % inhibition of α-glucosidase (at 0.25 μM): 14.83% inhibition at 0.25 μM

SMILES: Cc1ccc2c(=O)n(Cc3ccc([N+](=O)[O-])cc3)c3nc(Oc4ccccc4)nn3c2c1 [Compound 11]
- % inhibition of α-glucosidase (at 0.23 μM): 19.52% inhibition at 0.23 μM

SMILES: O=c1c2ccccc2n2nc(Oc3ccccc3)nc2n1CCN1CCCCC1 [Compound 12]
- IC50: 97.53 ± 0.94 µM

SMILES: Cc1ccc2c(=O)n(Cc3cccc(C#N)c3)c3nc(Oc4ccccc4)nn3c2c1 [Compound 13]
- % inhibition of α-glucosidase (at 0.21 μM): 27.93% inhibition at 0.21 μM
- inhibition of α-glucosidase (not screened for IC50): less than 50%

SMILES: O=C1c2ccccc2C(=O)N1CCn1c(=O)c2ccccc2n2nc(Oc3ccccc3)nc12 [Compound 14]
- IC50: 12.7 ± 1.87 µM
- times more potent than acarbose: approximately 12
